Patent publication US20080161306A1, “Pyrrole Derivatives as Dna Gyrase and Topoisomerase Inhibitors” (priority 2005, published 2008)
Converted amounts (≈) assume the structure as drawn. Read-outs that look alike come from different tables or passages of the source.

Legend:
Assay type in all cases: cell-based
[1] = tested on: HIN446; assay: Bacterial susceptibility testing in liquid media (MIC), HIN446; details: strain HIN446; lowest concentration reducing growth by 80% or more; 37 degrees C., 24 hrs
Description: (§1) Compounds were tested for antimicrobial activity by susceptibility testing in liquid media. Compounds were dissolved in dimethylsulfoxide and tested in 10 doubling dilutions in the susceptibility assays. The organisms used in the assay were grown overnight on suitable agar media and then suspended in a liquid medium appropriate for the growth of the organism. The suspension was a 0.5 McFarland and a further 1 in 10 dilution was made into the same liquid medium to prepare the final organism suspension in 100 μL. Plates were incubated under appropriate conditions at 37 degrees C. for 24 hrs prior to reading. The Minimum Inhibitory Concentration was determined as the lowest drug concentration able to reduce growth by 80% or more.

[2] = tested on: Streptococcus pneumoniae; assay: Bacterial susceptibility testing in liquid media (MIC), Streptococcus pneumoniae; details: lowest concentration reducing growth by 80% or more, 37 degrees C., 24 hrs; for MIC: Streptococcus pneumoniae
Description: as §1

[3] = tested on: SAU516; assay: Bacterial susceptibility testing in liquid media (MIC), SAU516; details: strain SAU516; lowest concentration reducing growth by 80% or more; 37 degrees C., 24 hrs
Description: as §1

[4] = strain SPN548, read-out: MIC SPN548

For `CO[C@@H]1C=C(c2cccc(C(=O)O)c2)CC[C@@H]1NC(=O)c1[nH]c(C)c(Cl)c1Cl` (relative stereo) [Example 11, 3-((3,4-Cis)-4-{[(3,4-Dichloro-5-methyl-1H-pyrrol-2-yl)carbonyl]amino}-3-methoxycyclohex-1-en-1-yl)benzoic acid], the “MIC HIN446” value [1] was 2 µg/mL (≈ 4.72 µM), the “MIC SPN548” value ([2]; strain SPN548) was 0.13 µg/mL (≈ 0.307 µM) and the “MIC SAU516” value [3] was 0.5 µg/mL (≈ 1.18 µM).
Work on `Cc1[nH]c(C(=O)N[C@H]2CC[C@H](c3cccc(C(=O)O)c3)CC2)c(Cl)c1Cl` [Example 5, trans-3-(4-{[(3,4-Dichloro-5-methyl-1H-pyrrol-2-yl)carbonyl]amino}cyclohexyl)benzoic acid] yielded an MIC [1] of 16 µg/mL (≈ 40.5 µM), an MIC [2, 4] of 4 µg/mL (≈ 10.1 µM) and an MIC [3] of 4 µg/mL (≈ 10.1 µM).
In the case of `Cc1[nH]c(C(=O)NC2CC=C(c3cccc(C(=O)O)c3)CC2)c(Cl)c1Cl` (stereo not shown) [Example 16, 5-(4-{[(3,4-Dichloro-5-methyl-1H-pyrrol-2-yl)carbonyl]amino}cyclohex-1-en-1-yl)benzoic acid], the MIC [1] is reported as 4 µg/mL (≈ 10.2 µM), the MIC ([2]; read-out: MIC against Streptococcus pneumoniae) is reported as 1 µg/mL (≈ 2.54 µM) and the MIC [2, 4] is reported as 1 µg/mL (≈ 2.54 µM). The MIC [3] was 2 µg/mL (≈ 5.09 µM).
